# Source: patent US11111242B2, “Pyrrolo[2,3-d]pyrimidinyl, pyrrolo[2,3-b]pyrazinyl and pyrrolo[2,3-d]pyridinyl acrylamides” (Pfizer Inc., priority 2013, dated 2021)
# Like-named read-outs stand apart in the source and are kept apart here.
# Assays:
# [1] = test system: IL-15 induced STAT5 phosphorylation in Human Whole Blood (total lymphocytes); assay: HWB IL-15 Induced STAT5 Phosphorylation Assay; type: cell-based; conditions: IL-15 stimulated, read-out: HWB-IL15-pSTAT5 IC50
# [2] = test system: IL-15 induced P-STAT5 in human PBMC (total lymphocytes); assay: PBMC IL-15 Induced P-STAT5; type: cell-based; conditions: IL-15 stimulated, read-out: PBMC IL15-pSTAT5 IC50
# Method in brief: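 Thawed human PBMC in RPMI, preincubated 30 min at 37 °C, then IL-15 stimulated. Cells methanol-permeabilized (90%, on ice 20 min) and stained for phospho-STAT5. Read by flow cytometry, gated on total lymphocytes.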
# [3] = Stability of JAK3 covalent inhibitors in human whole blood; type: in vitro ADME; conditions: 37° C.; for half-life at 1 μM: both sexes, read-out: Human blood stability t1/2; for Human blood stability t1/2: 1 μM
# Protocol: Human blood was collected from one male and one female healthy subjects at the Occupational Health & Wellness Center at Pfizer, Groton, Conn. and pooled for each study. Both rat and human blood was collected freshly into K2-EDTA tubes and kept on ice. An aliquot of the blood was transferred to microtubes and pre-warmed for 10 min at 37° C. using a heat block. […] An aliquot of the incubation mixture was removed at designated time points during the course of the incubation, mixed with an aliquot of acetonitrile containing an internal standard, vortexed and centrifuged. The resulting supernatants were removed and subjected to LC-MS/MS analyses to determine parent compound concentrations. Peak area ratios of the parent compound vs the internal standard were used to determine the % of parent compound remaining vs incubation time.
# [4] = target: JAK3 enzyme (Homo sapiens (Human), UniProt P52333); assay: JAK Caliper Enzyme Assay at 4 μM or 1 mM ATP; type: biochemical
# Protocol: JAK Caliper Enzyme Assay at 4 μM or 1 mM ATP
# Test article was solubilized in dimethyl sulfoxide (DMSO) to a stock concentration of 30 mM. An 11-point half log dilution series was created in DMSO with a top concentration of 600 μM. […] The compound plates were diluted 1 to 60 resulting in a top final assay compound concentration of 10 μM and a 2% DMSO concentration.
# Test article and assay controls were added to a 384-well plate. Reaction mixtures contained 20 mM HEPES, pH 7.4, 10 mM magnesium chloride, 0.01% bovine serum albumin (BSA), 0.0005% Tween 20, 4 μM or 1 mM ATP and 1 μM peptide substrate. […] The assays were initiated by the addition 1 nM JAK3 enzyme and were incubated at room temperature 75 minutes for JAK3. Enzyme concentrations and incubation times were optimized for each new enzyme preps and were modified slightly over time to ensure 20%-30% phosphorylation. The assays were stopped with a final concentration of 10 mM EDTA, 0.1% Coating Reagent and 100 mM HEPES, pH=7.4. The assay plates were placed on a Caliper Life Science Lab Chip 3000 (LC3000) instrument, and each well was sampled using appropriate separation conditions to measure the unphosphorylated and phosphorylated peptide.
# [5] = read-out: JAK3 (1 mM ATP) IC50, 1 mM ATP
# Sequence of JAK3 enzyme (P52333 whole entry, species assumed): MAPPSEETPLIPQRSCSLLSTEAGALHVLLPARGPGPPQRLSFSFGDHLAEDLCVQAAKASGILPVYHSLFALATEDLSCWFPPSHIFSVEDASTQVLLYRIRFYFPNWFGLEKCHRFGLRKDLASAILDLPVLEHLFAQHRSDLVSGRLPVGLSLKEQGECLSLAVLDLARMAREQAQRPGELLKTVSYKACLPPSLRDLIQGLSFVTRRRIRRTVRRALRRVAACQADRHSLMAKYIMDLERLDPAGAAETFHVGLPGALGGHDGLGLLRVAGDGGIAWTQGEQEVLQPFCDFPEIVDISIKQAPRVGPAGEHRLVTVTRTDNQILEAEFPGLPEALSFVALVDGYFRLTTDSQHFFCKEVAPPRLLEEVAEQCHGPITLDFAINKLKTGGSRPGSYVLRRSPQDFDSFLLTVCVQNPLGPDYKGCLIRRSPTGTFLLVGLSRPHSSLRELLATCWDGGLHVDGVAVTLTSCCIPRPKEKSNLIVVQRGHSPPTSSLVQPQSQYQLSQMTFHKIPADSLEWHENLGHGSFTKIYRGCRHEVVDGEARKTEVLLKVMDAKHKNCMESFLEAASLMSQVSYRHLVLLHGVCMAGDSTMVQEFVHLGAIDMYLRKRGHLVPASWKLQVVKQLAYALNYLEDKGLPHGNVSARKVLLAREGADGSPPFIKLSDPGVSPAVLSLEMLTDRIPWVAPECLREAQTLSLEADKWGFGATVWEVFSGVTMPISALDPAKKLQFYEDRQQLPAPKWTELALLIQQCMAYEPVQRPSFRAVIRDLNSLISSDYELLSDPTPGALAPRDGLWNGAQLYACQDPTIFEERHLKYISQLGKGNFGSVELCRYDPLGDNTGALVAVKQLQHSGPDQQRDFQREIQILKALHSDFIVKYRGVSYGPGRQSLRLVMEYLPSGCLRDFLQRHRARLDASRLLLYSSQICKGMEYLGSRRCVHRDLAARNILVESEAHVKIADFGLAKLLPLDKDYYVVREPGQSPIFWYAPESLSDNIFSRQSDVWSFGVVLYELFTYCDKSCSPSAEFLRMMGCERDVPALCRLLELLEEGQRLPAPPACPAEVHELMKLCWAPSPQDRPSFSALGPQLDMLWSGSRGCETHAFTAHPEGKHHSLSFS
IC50 ([1]; Lymphocyte),Structure (SMILES),IC50 [2],further results
> 10000 nM,"C=CC(=O)N1C[C@@H](Nc2ncnc3[nH]ccc23)[C@@H]2CC[C@H]1C2 (racemic) [Example 116, Rac-1-((1R,4R,5S)-4-(7H-pyrrolo[2,3-d]pyrimidin-4-ylamino)-2-azabicyclo[3.2.1]octan-2-yl)prop-2-en-1-one]",–,"IC50 ([2]; Homo sapiens, PBMC): > 10000 nM; half-life at 1 μM [3]: 4.68 h"
–,C=CC(=O)N1CC[C@H](Nc2cnc3[nH]cc(C(=O)NC(C)(C)C)c3n2)C[C@@H]1C (racemic) [Example 340],–,half-life at 1 μM [3]: > 6 h
–,"C=CC(=O)N1CC[C@@H](Nc2cnc3[nH]cc(C(=O)NC(C)(C)C)c3n2)C[C@H]1C (single isomer, unassigned) [Example 342]",–,half-life at 1 μM [3]: > 6 h
–,"C=CC(=O)N1CCC[C@@H](Nc2ncnc3[nH]cc(-c4ccc(C(=O)NC5CC5)c(Cl)c4)c23)C1 [Example 31, 4-(4-{[(3R)-1-acryloylpiperidin-3-yl]amino}-7H-pyrrolo[2,3-d]pyrimidin-5-yl)-2-chloro-N-cyclopropylbenzamide]",–,half-life at 1 μM [3]: > 6 h
1000 nM,"C=CC(=O)N1C[C@@H](O)C[C@@H](Nc2ncnc3[nH]cc(Cl)c23)C1 [Example 162, 1-{(3R,5S)-3-[(5-Chloro-7H-pyrrolo[2,3-d]pyrimidin-4-yl)amino]-5-hydroxypiperidin-1-yl}prop-2-en-1-one]",361 nM,half-life at 1 μM [3]: > 6 h
–,"C=CC(=O)N1CC2CCN(c3cnc4[nH]cc(C(=O)NC(C)C)c4n3)C2C1 (centres unmarked) [Example 178, 2-(5-acryloylhexahydropyrrolo[3,4-b]pyrrol-1(2H)-yl)-N-(propan-2-yl)-5H-pyrrolo[2,3-b]pyrazine-7-carboxamide]",208 nM,IC50 [1]: 2560 nM; Human blood stability t1/2 [3]: 2.38 h
–,"C=CC(=O)N1CCC(Oc2cnc3[nH]cc(-c4cnn(C)c4)c3n2)CC1 [Example 218, 1-(4-{[7-(1-methyl-1H-pyrazol-4-yl)-5H-pyrrolo[2,3-b]pyrazin-2-yl]oxy}piperidin-1-yl)prop-2-en-1-one]",345 nM,IC50 [1]: 6190 nM; Human blood stability t1/2 [3]: >6 h
–,"C=CC(=O)N1CCC(Nc2cnc3[nH]cc(C(=O)N[C@@H](C)C(=O)NCCC#N)c3n2)CC1 [Example 264, 2-[(1-acryloylpiperidin-4-yl)amino]-N-{(2S)-1-[(2-cyanoethyl)aminop]-oxopropan-2-yl}-5H-pyrrolo[2,3-b]pyrazine-7-carboxamide]",4480 nM,"IC50 ([4]; read-out: JAK3 (4 μM ATP) IC50, 4 μM ATP): 2.6 nM; IC50 [4, 5]: 226 nM"
2670 nM,"C=CC(=O)N1CCN(c2cnc3[nH]cc(C(=O)NC(C)C)c3n2)C[C@@H]1C [Example 295, 2-[(3S)-4-acryloyl-3-methylpiperazin-1-yl]-N-(propan-2-yl)-5H-pyrrolo[2,3-b]pyrazine-7-carboxamide]",334 nM,–
1380 nM,"C=CC(=O)N1CCN(c2cnc3[nH]cc(C(=O)NC(C)C)c3n2)C[C@@H]1CC [Example 299, 2-[(3S)-4-acryloyl-3-ethylpiperazin-1-yl]-N-(propan-2-yl)-5H-pyrrolo[2,3-b]pyrazine-7-carboxamide]",225 nM,–
3400 nM,"C=CC(=O)N1C[C@@H]2C[C@H]1CN2c1cnc2[nH]cc(C(=O)NC(C)C)c2n1 [Example 300, 2-[(1S,4S)-5-acryloyl-2,5-diazabicyclo[2.2.1]hept-2-yl]-N-(propan-2-yl)-5H-pyrrolo[2,3-b]pyrazine-7-carboxamide]",714 nM,–
1310 nM,"C=CC(=O)N1CC[C@@H](Nc2cnc3[nH]cc(C(=O)NC(C)C)c3n2)[C@@H](OC)C1 [Example 302, 2-{[(3S,4R)-1-acryloyl-3-methoxypiperidin-4-yl]amino}-N-(propan-2-yl)-5H-pyrrolo[2,3-b]pyrazine-7-carboxamide]",264 nM,–
2730 nM,"C=CC(=O)N1CCN(c2cnc3[nH]cc(C(=O)NC(C)C)c3n2)C[C@@H]1CC(C)C [Example 303, 2-[(3S)-4-acryloyl-3-(2-methylpropyl)piperazin-1-yl]-N-(propan-2-yl)-5H-pyrrolo[2,3-b]pyrazine-7-carboxamide]",–,"IC50 ([2]; Homo sapiens, PBMC): 294 nM"
2640 nM,"C=CC(=O)N1CC[C@@H](Nc2cnc3[nH]cc(C(=O)NC(C)C)c3n2)[C@H](OC)C1 [Example 305, 2-{[(3R,4R)-1-acryloyl-3-methoxypiperidin-4-yl]amino}-N-(propan-2-yl)-5H-pyrrolo[2,3-b]pyrazine-7-carboxamide]",744 nM,–
–,"C=CC(=O)N1CCN(c2cnc3[nH]cc(C(=O)NC(C)C)c3n2)C[C@H]1CC [Example 311, 2-[(3R)-4-acryloyl-3-ethylpiperazin-1-yl]-N-(propan-2-yl)-5H-pyrrolo[2,3-b]pyrazine-7-carboxamide]",696 nM,"IC50 [4, 5]: 220 nM"
420 nM,"C=CC(=O)N1CC[C@H](Nc2cnc3[nH]cc(C(=O)NC(C)C)c3n2)[C@H](OC)C1 [Example 317, 2-{[(3R,4S)-1-acryloyl-3-methoxypiperidin-4-yl]amino}-N-(propan-2-yl)-5H-pyrrolo[2,3-b]pyrazine-7-carboxamide]",243 nM,–
2080 nM,"C=CC(=O)N1CCC(C)(Nc2cnc3[nH]cc(C(=O)NC(C)C)c3n2)CC1 [Example 318, 2-[(1-acryloyl-4-methylpiperidin-4-yl)amino]-N-(propan-2-yl)-5H-pyrrolo[2,3-b]pyrazine-7-carboxamide]",260 nM,–
343 nM,"C=CC(=O)N1CC[C@@H](Nc2cnc3[nH]cc(C(=O)NC(C)C)c3n2)[C@@H](F)C1 [Example 320, 2-{[(3S,4R)-1-acryloyl-3-fluoropiperidin-4-yl]amino}-N-(propan-2-yl)-5H-pyrrolo[2,3-b]pyrazine-7-carboxamide]",61.1 nM,–
631 nM,"C=CC(=O)N1CC(Nc2cnc3[nH]ccc3n2)C1 [Example 337, 1-(3-((5H-Pyrrolo[2,3-b]pyrazin-2-yl)amino)azetidin-1-yl)prop-2-en-1-one]",–,"IC50 ([2]; Homo sapiens, PBMC): 237 nM"
502 nM,"C=CC(=O)N1CCC(Oc2cnc3[nH]cc(C(=O)NC(C)C)c3n2)CC1 [Example 339, 2-((1-Acryloylpiperidin-4-yl)oxy)-N-isopropyl-5H-pyrrolo[2,3-b]pyrazine-7-carboxamide]",80.6 nM,–
–,"C=CC(=O)N1CC[C@H](Nc2cnc3[nH]cc(C(=O)NC(C)(C)C)c3n2)C[C@@H]1C [Example 341, 2-(((2S,4S)-1-Acryloyl-2-methylpiperidin-4-yl)amino)-N-(tert-butyl)-5H-pyrrolo[2,3-b]pyrazine-7-carboxamide]",–,Human blood stability t1/2 [3]: >6 h
105 nM,"C#CCNC(=O)c1c[nH]c2ncc(NC3CCN(C(=O)C=C)CC3)nc12 [Example 343, 2-((1-Acryloylpiperidin-4-yl)amino)-N-(prop-2-yn-1-yl)-5H-pyrrolo[2,3-b]pyrazine-7-carboxamide]",36.8 nM,–

Structure (SMILES),IC50 ([1]; Lymphocyte),IC50 [2],further results
"C=CC(=O)N1[C@@H]2CC[C@H]1CN(c1cnc3[nH]cc(C(=O)NC(C)C)c3n1)C2 [Example 301, 2-[(1R,5S)-8-acryloyl-3,8-diazabicyclo[3.2.1]oct-3-yl]-N-(propan-2-yl)-5H-pyrrolo[2,3-b]pyrazine-7-carboxamide]",4900 nM,408 nM,–
